# Test results from patent publication US12662498B2 (priority 2017, dated 2026).
# Legend:
# [1] = Heat cycling slurry maturation of amorphous Psilocybin (visual solubility, form fate); type: physicochemical; conditions: for Obs. at 20° C. / Obs. at 45° C. / Obs. at 50° C.: 20 vol.; for Obs. at 45° C.: 45° C. for 18 hours; for Obs. at 50° C.: 50° C. for 8 hours; for XRPD Data (form fate): solid isolated after heat cycling slurry maturation
# Procedure: In order to generate amorphous material a small sample of Psilocybin (0.5 g) was dissolved in water (0.5 L, 1000 vol.), polish filtered and lyophilised. Psilocybin was recovered as an off white fibrous material (lot MC1368A; 412 mg, 82%, XRPD amorphous).
# To assess visually solubility of the amorphous API and to induce form modification, a series of slurry maturations were performed as follows:
# Psilocybin (15 mg) was charged to tubes. Solvent was then added at ambient temperature (20° C., 0.3 ml, 20 vol.) and the suspensions agitated. Observations were made. After 1 hour of stirring, samples were heated to 45° C. for 18 hours and observations made. Samples were heated to 50° C. for 8 hours and observations were made. The samples were agitated for 72 hours at 25° C. and subject to a final heat cycle, prior to isolation.
# Solubility in water = type: physicochemical
# Text: (§1) The psilocybin of the invention in the form Polymorph A or A′ has the general properties illustrated in Table 5 below: […]
# Hygroscopicity = type: physicochemical; conditions: high humidity / added to water
# Text: as §1
# [2] = ICH stability study of psilocybin batches (appearance, water content, purity, assay); conditions: 2-8° C., 25° C./60% RH and 40° C./75% RH
# [3] = Heat cycling slurry maturation of Psilocybin Pattern A in 24 solvents (visual solubility)
compound,measurement,setting,value
CN(C)CCc1c[nH]c2cccc(OP(=O)(O)O)c12 [amorphous Psilocybin],Obs. at 20° C.,[1]; 4:1 EtOH/water,Susp.
same,Obs. at 45° C.,[1]; 4:1 EtOH/water,Susp.
same,Obs. at 50° C.,[1]; 4:1 EtOH/water,Susp.
same,Obs. at 20° C.,[1]; 4:1 IPA/water,Susp.
same,Obs. at 45° C.,[1]; 4:1 IPA/water,Susp.
same,Obs. at 50° C.,[1]; 4:1 IPA/water,Susp.
same,Obs. at 20° C.,[1]; 4:1 THF/water,Susp.
same,Obs. at 45° C.,[1]; 4:1 THF/water,Susp.
same,Obs. at 50° C.,[1]; 4:1 THF/water,Susp.
same,Obs. at 20° C.,[1]; Acetonitrile,Susp.
same,Obs. at 45° C.,[1]; Acetonitrile,Susp.
same,Obs. at 50° C.,[1]; Acetonitrile,Susp.
same,XRPD Data (form fate),[1]; Acetonitrile,Amorphous
same,Obs. at 20° C.,[1]; Anisole,Susp.
same,Obs. at 45° C.,[1]; Anisole,Susp.
same,Obs. at 50° C.,[1]; Anisole,Susp.
same,XRPD Data (form fate),[1]; Anisole,Semi-crystalline
same,Obs. at 20° C.,[1]; Benzotrifluoride,Susp.
same,Obs. at 45° C.,[1]; Benzotrifluoride,Susp.
same,Obs. at 50° C.,[1]; Benzotrifluoride,Susp.
same,XRPD Data (form fate),[1]; Benzotrifluoride,Semi-crystalline
same,Obs. at 20° C.,[1]; CPME,Susp.
same,Obs. at 45° C.,[1]; CPME,Susp.
same,Obs. at 50° C.,[1]; CPME,Susp.
same,XRPD Data (form fate),[1]; CPME,Semi-crystalline
same,Obs. at 20° C.,[1]; Chlorobenzene,Susp.
same,Obs. at 45° C.,[1]; Chlorobenzene,Susp.
same,Obs. at 50° C.,[1]; Chlorobenzene,Susp.
same,XRPD Data (form fate),[1]; Chlorobenzene,Semi-crystalline
same,Obs. at 20° C.,[1]; Chlorobutane,Susp.
same,Obs. at 45° C.,[1]; Chlorobutane,Susp.
same,Obs. at 50° C.,[1]; Chlorobutane,Susp.
same,XRPD Data (form fate),[1]; Chlorobutane,Pattern B
same,Obs. at 20° C.,[1]; Chloroform,Susp.
same,Obs. at 45° C.,[1]; Chloroform,Susp.
same,Obs. at 50° C.,[1]; Chloroform,Susp.
same,Obs. at 20° C.,[1]; Cyclohexane,Susp.
same,Obs. at 45° C.,[1]; Cyclohexane,Susp.
same,Obs. at 50° C.,[1]; Cyclohexane,Susp.
same,XRPD Data (form fate),[1]; Cyclohexane,Semi-crystalline
same,Obs. at 20° C.,[1]; EtOAc,Susp.
same,Obs. at 45° C.,[1]; EtOAc,Susp.
same,Obs. at 50° C.,[1]; EtOAc,Susp.
same,XRPD Data (form fate),[1]; EtOAc,Semi-crystalline
same,Obs. at 20° C.,[1]; EtOH,Susp.
same,Obs. at 45° C.,[1]; EtOH,Susp.
same,Obs. at 50° C.,[1]; EtOH,Susp.
same,XRPD Data (form fate),[1]; EtOH,Pattern D
same,Obs. at 20° C.,[1]; Heptane,Susp.
same,Obs. at 45° C.,[1]; Heptane,Susp.
same,Obs. at 50° C.,[1]; Heptane,Susp.
same,XRPD Data (form fate),[1]; Heptane,Semi-crystalline
same,Obs. at 20° C.,[1]; IPA,Susp.
same,Obs. at 45° C.,[1]; IPA,Susp.
same,Obs. at 50° C.,[1]; IPA,Susp.
same,XRPD Data (form fate),[1]; IPA,Pattern B
same,Obs. at 20° C.,[1]; MEK,Susp.
same,Obs. at 45° C.,[1]; MEK,Susp.
same,Obs. at 50° C.,[1]; MEK,Susp.
same,XRPD Data (form fate),[1]; MEK,Semi-crystalline
same,Obs. at 20° C.,[1]; MIBK,Susp.
same,Obs. at 45° C.,[1]; MIBK,Susp.
same,Obs. at 50° C.,[1]; MIBK,Susp.
same,XRPD Data (form fate),[1]; MIBK,Semi-crystalline
same,Obs. at 20° C.,[1]; MeOH,Susp.
same,Obs. at 45° C.,[1]; MeOH,Susp.
same,Obs. at 50° C.,[1]; MeOH,Susp.
same,XRPD Data (form fate),[1]; MeOH,Semi-crystalline
same,Obs. at 20° C.,[1]; Nitromethane,Susp.
same,Obs. at 45° C.,[1]; Nitromethane,Susp.
same,Obs. at 50° C.,[1]; Nitromethane,Susp.
same,XRPD Data (form fate),[1]; Nitromethane,Pattern B
same,Obs. at 20° C.,[1]; TBME,Susp
same,Obs. at 45° C.,[1]; TBME,Susp.
same,Obs. at 50° C.,[1]; TBME,Susp.
same,XRPD Data (form fate),[1]; TBME,Semi-crystalline
same,Obs. at 20° C.,[1]; THF,Susp.
same,Obs. at 45° C.,[1]; THF,Susp.
same,Obs. at 50° C.,[1]; THF,Susp.
same,XRPD Data (form fate),[1]; THF,Semi-crystalline
same,Obs. at 20° C.,[1]; Toluene,Susp.
same,Obs. at 45° C.,[1]; Toluene,Susp.
same,Obs. at 50° C.,[1]; Toluene,Susp.
same,Obs. at 20° C.,[1]; Water,Susp.
same,Obs. at 45° C.,[1]; Water,Susp.
same,Obs. at 50° C.,[1]; Water,Susp.
same,Obs. at 20° C.,[1]; iPrOAc,Susp.
same,Obs. at 45° C.,[1]; iPrOAc,Susp.
same,Obs. at 50° C.,[1]; iPrOAc,Susp.
same,XRPD Data (form fate),[1]; iPrOAc,Semi-crystalline
"CN(C)CCc1c[nH]c2cccc(OP(=O)(O)O)c12 [Psilocybin, 3-[2-(dimethylazaniumyl) Ethyl]-1H-indol-4-yl Hydrogen Phosphate]",solubility,Solubility in water,~15 mg/mL
same,Hygroscopicity,Hygroscopicity,Psilocybin forms Hydrate A at high
same,chemical stability over the first 12 months of the ICH stability study,[2],chemically stable
same,solubility in the solvents and solvent mixtures tested,[3]; 30 volumes at 50° C.,largely insoluble
same,solubility in water,"[3]; Water, 50° C.",did solubilise
